Reference: ChEMBL document CHEMBL5143672, “New diarylpentanoids and chalcones as potential antimicrobial adjuvants” (2022)

How the values were obtained:
Pseudomonas aeruginosa = assay: Antibacterial activity against Pseudomonas aeruginosa ATCC 27853 assessed as inhibition of bacterial growth by broth microdilution method; format: functional
Staphylococcus aureus [1] = assay: Antibacterial activity against methicillin and ofloxacin-resistant Staphylococcus aureus 272123 assessed as inhibition of bacterial growth by broth microdilution method; format: functional
Escherichia coli [2] = assay: Antibacterial activity against Escherichia coli ATCC 25922 assessed as inhibition of bacterial growth by broth microdilution method; format: functional
Staphylococcus aureus [3] = assay: Antibacterial activity against Staphylococcus aureus ATCC 25923 assessed as inhibition of bacterial growth by broth microdilution method; format: functional
[4] = Inhibition of Multidrug resistance efflux pump in Staphylococcus aureus 272123 assessed as relative fluorescence index using ethidium bromide as substrate at 50 uM by fluorescence based analysis
[5] = tested on: Salmonella enterica subsp. enterica serovar Typhimurium; assay: Inhibition of Multidrug resistance efflux pump in Salmonella enterica serovar typhimurium SL1344 (SE03) assessed as relative fluorescence index using ethidium bromide as substrate at 50 uM by fluorescence based analysis
Enterococcus faecalis [6] = assay: Antibacterial activity against Enterococcus faecalis ATCC 29212 assessed as inhibition of bacterial growth by broth microdilution method; format: functional
Candida albicans = assay: Antifungal activity against Candidia albicans ATCC 10231 assessed as inhibition of fungal growth by broth microdilution method; format: functional
Salmonella typhimurium = assay: Antibacterial activity against Salmonella enterica serovar typhimurium SL1344 (SE03) assessed as inhibition of bacterial growth by broth microdilution method; format: functional, Salmonella enterica subsp. enterica serovar Typhimurium
Aspergillus fumigatus = assay: Antifungal activity against Aspergillus fumigatus ATCC 204305 assessed as inhibition of fungal growth by broth microdilution method; format: functional
Escherichia coli [7] = assay: Antimicrobial adjuvant activity against ESBL-producing Escherichia coli SA/2 assessed as potentiation of cefotaxime-induced antibacterial activity by measuring fold reduction in cefotaxime MIC at 64 ug/ml by broth microdilution method; format: functional; conditions: dose 64 µg/ml
Trichophyton rubrum = assay: Antifungal activity against Trichophyton rubrum FF5 assessed as inhibition of fungal growth by broth microdilution method; format: functional
[8] = Inhibition of quorum sensing system in Chromobacterium violaceum wild type 85 assessed as reduction in pigment production incubated for 24 to 48 hrs; conditions: time 24-48 hrs
[9] = Inhibition of quorum sensing system in Chromobacterium violaceum CV026 assessed as reduction in pigment production co-cultured with Sphingomonas paucimobilis Ezf 10-17 for 24 to 48 hrs; conditions: time 24-48 hrs
Staphylococcus aureus [10] = assay: Inhibition of biofilm formation in Staphylococcus aureus ATCC 25923 at 100 uM incubated for 48 hrs by crystal violet staining based analysis; format: functional
Staphylococcus aureus [11] = assay: Inhibition of biofilm formation in Staphylococcus aureus 272123 at 100 uM incubated for 48 hrs by crystal violet staining based analysis; format: functional
Enterococcus faecalis [12] = assay: Antimicrobial adjuvant activity against Enterococcus faecalis B3/101 assessed as potentiation of vancomycin-induced antibacterial activity by measuring fold reduction in vancomycin MIC at 64 ug/ml by broth microdilution method; format: functional; conditions: dose 64 µg/ml
Serratia marcescens = assay: Inhibition of quorum sensing system in Serratia marcescens AS-1 assessed as reduction in pigment production incubated for 24 to 48 hrs; conditions: time 24-48 hrs

Compound | MIC (Pseudomonas aeruginosa) [µg/mL] | MIC (Staphylococcus aureus [1]) [µg/mL] | MIC (Escherichia coli [2]) [µg/mL] | MIC (Staphylococcus aureus [3]) [µg/mL] | RFU [4] | RFU [5] | MIC (Enterococcus faecalis [6]) [µg/mL] | MIC (Candida albicans) [µg/mL] | MIC (Salmonella typhimurium) [µg/mL] | MIC (Aspergillus fumigatus) [µg/mL] | fold change (FC) (Escherichia coli [7]) | MIC (Trichophyton rubrum) [µg/mL] | Activity [8] [mm] | Activity [9] [mm] | inhibition at 100 µM (Staphylococcus aureus [10]) [%] | inhibition at 100 µM (Staphylococcus aureus [11]) [%] | fold change (FC) (Enterococcus faecalis [12]) | Activity (Serratia marcescens) [mm]
O=C1/C(=C/c2ccc(C(F)(F)F)cc2)COC/C1=C\c1ccc(C(F)(F)F)cc1 | > 64 | > 64 | > 64 | > 64 | -0.12 | -0.24 | > 64 | > 128 | > 64 | > 128 | 2 | > 128 | – | – | – | – | – | –
COc1ccc(/C=C2\COC/C(=C\c3ccc(OC)cc3OC)C2=O)c(OC)c1 | > 64 | > 64 | > 64 | > 64 | -0.19 | -0.15 | > 64 | > 128 | > 64 | > 128 | 8 | > 128 | – | – | – | – | – | –
COc1cc(OC)c(OC)cc1/C=C1\CSc2ccccc2C1=O | > 64 | > 64 | > 64 | > 64 | 0.36 | -0.02 | > 64 | > 128 | > 64 | > 128 | – | > 128 | 0 | 0 | 0 | 74.1 | 2 | 0
CC(CN1c2ccccc2Sc2ccccc21)N(C)C (stereo not given) | – | – | – | – | – | – | – | – | – | – | – | – | 40 | 41 | – | – | – | 18
O=C1/C(=C/c2ccccc2F)COC/C1=C\c1ccccc1F | > 64 | > 64 | > 64 | > 64 | -0.08 | -0.04 | > 64 | > 128 | > 64 | > 128 | 2 | > 128 | – | – | – | – | – | –
COc1cccc(/C=C2\COC/C(=C\c3cccc(OC)c3)C2=O)c1 | > 64 | > 64 | > 64 | > 64 | 0.17 | 0.05 | > 64 | > 128 | > 64 | > 128 | – | > 128 | – | – | – | – | 4 | –
O=C1/C(=C/c2ccc(F)cc2)COC/C1=C\c1ccc(F)cc1 | > 64 | > 64 | > 64 | > 64 | -0.11 | 0.17 | > 64 | > 128 | > 64 | > 128 | 8 | > 128 | – | – | – | – | – | –
O=C1/C(=C/c2ccc(Br)cc2)COC/C1=C\c1ccc(Br)cc1 | > 64 | > 64 | > 64 | > 64 | 0.53 | 0.06 | > 64 | > 128 | > 64 | > 128 | 8 | > 128 | 0 | 0 | 0 | 51.2 | – | 0
O=C1/C(=C/c2ccccc2Br)COC/C1=C\c1ccccc1Br | > 64 | > 64 | > 64 | > 64 | -0.05 | -0.02 | > 64 | > 128 | > 64 | > 128 | – | > 128 | – | – | – | – | 2 | –
Cc1cccc(/C=C2\COC/C(=C\c3cccc(C)c3)C2=O)c1 | > 64 | > 64 | > 64 | > 64 | 0.11 | -0.12 | > 64 | > 128 | > 64 | > 128 | 2 | > 128 | – | – | – | – | 2 | –
COc1ccc(/C=C2\COC/C(=C\c3ccc(OC)c(OC)c3)C2=O)cc1OC | > 64 | > 64 | > 64 | > 64 | 2.47 | -0.02 | > 64 | > 128 | > 64 | > 128 | 2 | > 128 | 0 | 0 | 0 | 0 | – | 0
COc1cc(/C=C2\COC/C(=C\c3cc(OC)cc(OC)c3)C2=O)cc(OC)c1 | > 64 | > 64 | > 64 | > 64 | 0.25 | 0.09 | > 64 | > 128 | > 64 | > 128 | – | > 128 | – | – | – | – | 4 | –
COc1cc(OC)c(OC)cc1/C=C1\Cc2ccccc2C1=O | > 64 | > 64 | > 64 | > 64 | -0.34 | 0.11 | > 64 | > 128 | > 64 | > 128 | 2 | > 128 | – | – | – | – | 2 | –
Cc1ccc(/C=C2\COC/C(=C\c3ccc(C)cc3)C2=O)cc1 | > 64 | > 64 | > 64 | > 64 | -0.24 | -0.21 | > 64 | > 128 | > 64 | > 128 | 2 | > 128 | – | – | – | – | 2 | –
Cc1ccccc1/C=C1\COC/C(=C\c2ccccc2C)C1=O | > 64 | > 64 | > 64 | > 64 | -0.23 | -0.08 | > 64 | > 128 | > 64 | > 128 | – | > 128 | – | – | – | – | 2 | –
O=C1/C(=C/c2ccccc2Cl)COC/C1=C\c1ccccc1Cl | > 64 | > 64 | > 64 | > 64 | -0.16 | -0.08 | > 64 | > 128 | > 64 | > 128 | 2 | > 128 | – | – | – | – | – | –
O=C1/C(=C/c2cccc(F)c2)COC/C1=C\c1cccc(F)c1 | > 64 | > 64 | > 64 | > 64 | -0.16 | 0.04 | > 64 | > 128 | > 64 | > 128 | – | > 128 | – | – | – | – | 2 | –
COc1ccccc1/C=C1\CSC/C(=C\c2ccccc2OC)C1=O | > 64 | > 64 | > 64 | > 64 | 0.01 | 0.01 | > 64 | > 128 | > 64 | > 128 | – | > 128 | – | – | – | – | 4 | –
COc1ccccc1/C=C1\CC/C(=C\c2ccccc2OC)C1=O | > 64 | > 64 | > 64 | > 64 | -0.39 | 0.15 | > 64 | > 128 | > 64 | > 128 | – | > 128 | – | – | – | – | 2 | –
COc1ccccc1/C=C1\Cc2ccccc2C1=O | > 64 | > 64 | > 64 | > 64 | 0.05 | 0.25 | > 64 | > 128 | > 64 | > 128 | – | > 128 | – | – | – | – | 2 | –
COc1cc(/C=C2\COC/C(=C\c3cc(OC)c(OC)c(OC)c3)C2=O)cc(OC)c1OC | > 64 | > 64 | > 64 | > 64 | 0.02 | -0.05 | > 64 | > 128 | > 64 | > 128 | 2 | > 128 | – | – | – | – | – | –
COc1ccccc1/C=C1\COC/C(=C\c2ccccc2OC)C1=O | > 64 | > 64 | > 64 | > 64 | 0.21 | 0.16 | > 64 | > 128 | > 64 | > 128 | 2 | > 128 | – | – | – | – | – | –
O=C1/C(=C/c2ccc(Cl)cc2Cl)COC/C1=C\c1ccc(Cl)cc1Cl | > 64 | > 64 | > 64 | > 64 | -0.25 | -0.13 | > 64 | > 128 | > 64 | > 128 | 2 | > 128 | – | – | – | – | – | –
